# Read-outs that look alike come from different tables or passages of the source.
# Experiments:
# Assay type in all cases: cell-based
# E. coli MP-9 ΔTolC = assay: MIC against E. coli MP-9 ΔTolC
# S. pyogenes ATCC 19615 = assay: MIC against S. pyogenes ATCC 19615
# S. pneumoniae ATCC 49619 = assay: MIC against S. pneumoniae ATCC 49619
# S. aureus ATCC 29213 = assay: MIC against S. aureus ATCC 29213
# E. coli ATCC 25922 = assay: MIC against E. coli ATCC 25922
# H. influenzae ATCC 49247 = assay: MIC against H. influenzae ATCC 49247
# K. pneumoniae ATCC 10031 = assay: MIC against K. pneumoniae ATCC 10031
# E. faecalis ATCC 29212 = assay: MIC against E. faecalis ATCC 29212
# [1] = system: E. coli MP-74 LptD mutant; assay: MIC against E. coli MP-74 LptD mutant
# [2] = system: S. aureus MP-549 msr(a) USA 300; assay: MIC against S. aureus MP-549 msr(a) USA 300
# S. aureus BAA 977 iErmA = assay: MIC against S. aureus BAA 977 iErmA; conditions: Staphylococcus aureus, BAA977
# [3] = Streptococcus pyogenes, ATCC19615, S. pyogenes ATCC 19615, read-out: MIC
# [4] = Streptococcus pneumoniae, ATCC49619, S. pneumoniae ATCC 49619, read-out: MIC
# [5] = Staphylococcus aureus, ATCC29213, S. aureus ATCC 29213, read-out: MIC
# [6] = Escherichia coli, ATCC25922, read-out: MIC
# [7] = Klebsiella pneumoniae, ATCC10031, read-out: MIC
# [8] = Enterococcus faecalis, ATCC29212, E. faecalis ATCC 29212, read-out: MIC
smiles,measurement,setting,value
CCC[C@@H]1C[C@@H](C(=O)N[C@H]([C@H]2C=CCC2)[C@H]2OC(SC)[C@H](O)C(O)C2O)N(C)C1 (stereo partly shown) [FSA-217003],MIC,E. coli MP-9 ΔTolC; Escherichia coli,> 64 µg/mL
same,MIC,S. pyogenes ATCC 19615; [3],0.5 µg/mL
same,MIC,S. pneumoniae ATCC 49619; [4],0.5 µg/mL
same,MIC,S. aureus ATCC 29213; [5],1 µg/mL
same,MIC,E. coli ATCC 25922; [6],> 64 µg/mL
same,MIC,"H. influenzae ATCC 49247; Haemophilus influenzae, ATCC49247, H. influenzae ATCC 49247, read-out: MIC",> 64 µg/mL
same,MIC,K. pneumoniae ATCC 10031; [7],> 64 µg/mL
same,MIC,E. faecalis ATCC 29212; [8],64 µg/mL
same,MIC,[1]; Escherichia coli,> 64 µg/mL
same,MIC,"[2]; Staphylococcus aureus, USA300, S. aureus MP-549 msr(a) USA 300",1 µg/mL
CCC[C@@H]1C[C@@H](C(=O)N[C@H]([C@@H]2CCCC2N)[C@H]2OC(SC)[C@H](O)C(O)C2O)N(C)C1 (stereo partly shown) [FSA-217045b],MIC,E. coli MP-9 ΔTolC,>64 µg/mL
same,MIC,S. pyogenes ATCC 19615; S. pyogenes ATCC 19615,>64 µg/mL
same,MIC,S. pneumoniae ATCC 49619; S. pneumoniae ATCC 49619,32 µg/mL
same,MIC,S. aureus ATCC 29213; S. aureus ATCC 29213,>64 µg/mL
same,MIC,E. coli ATCC 25922,>64 µg/mL
same,MIC,H. influenzae ATCC 49247; H. influenzae ATCC 49247,>64 µg/mL
same,MIC,K. pneumoniae ATCC 10031,>64 µg/mL
same,MIC,E. faecalis ATCC 29212; E. faecalis ATCC 29212,>64 µg/mL
same,MIC,[1],>64 µg/mL
same,MIC,[2]; S. aureus MP-549 msr(a) USA 300,>64 µg/mL
CCC[C@@H]1C[C@@H](C(=O)N[C@H](Cn2cc(-c3ccnc(N)n3)nn2)[C@H]2OC(SC)[C@H](O)C(O)C2O)N(C)C1 (stereo partly shown) [FSA-215011],MIC,S. pyogenes ATCC 19615; [3],> 64 µg/mL
same,MIC,S. pneumoniae ATCC 49619; [4],2 µg/mL
same,MIC,S. aureus ATCC 29213; [5],> 64 µg/mL
same,MIC,E. coli ATCC 25922; [6],> 64 µg/mL
same,MIC,E. faecalis ATCC 29212; [8],> 64 µg/mL
CCC[C@@H]1C[C@@H](C(=O)N[C@H]([C@H](C)NCc2ccc(F)cc2)[C@H]2OC(SC)[C@H](O)C(O)C2O)N(C)C1 (stereo partly shown) [FSA-215025d],MIC,E. coli MP-9 ΔTolC; Escherichia coli,> 64 µg/mL
same,MIC,S. pyogenes ATCC 19615; [3],1 µg/mL
same,MIC,S. pneumoniae ATCC 49619; [4],2 µg/mL
same,MIC,S. aureus BAA 977 iErmA,4 µg/mL
same,MIC,S. aureus ATCC 29213; [5],4 µg/mL
same,MIC,E. coli ATCC 25922; [6],> 64 µg/mL
same,MIC,K. pneumoniae ATCC 10031; [7],> 64 µg/mL
same,MIC,E. faecalis ATCC 29212; [8],> 64 µg/mL
"CCC[C@@H]1C[C@@H](C(=O)N[C@H](CO)[C@H]2OC(SC)[C@H](O)C(O)C2O)N(C)C1 (stereo partly shown) [FSA-214043, 8-norlincomycin]",MIC,S. pyogenes ATCC 19615; [3],8 µg/mL
same,MIC,S. pneumoniae ATCC 49619; [4],4 µg/mL
same,MIC,S. aureus ATCC 29213; [5],32 µg/mL
same,MIC,E. coli ATCC 25922; [6],> 64 µg/mL
same,MIC,E. faecalis ATCC 29212; [8],64 µg/mL
CCC[C@@H]1C[C@@H](C(=O)N[C@H](COC(=O)Nc2ccccc2)[C@H]2OC(SC)[C@H](O)C(O)C2O)N(C)C1 (stereo partly shown) [FSA-215036],MIC,E. coli MP-9 ΔTolC; Escherichia coli,> 64 µg/mL
same,MIC,S. pyogenes ATCC 19615; [3],64 µg/mL
same,MIC,S. pneumoniae ATCC 49619; [4],16 µg/mL
same,MIC,S. aureus BAA 977 iErmA,> 64 µg/mL
same,MIC,S. aureus ATCC 29213; [5],> 64 µg/mL
same,MIC,E. coli ATCC 25922; [6],> 64 µg/mL
same,MIC,K. pneumoniae ATCC 10031; [7],> 64 µg/mL
same,MIC,E. faecalis ATCC 29212; [8],> 64 µg/mL

# — patent publication US11566039B2, “Lincosamide antibiotics and uses thereof” (President and Fellows of Harvard College, priority 2017, dated 2023)
